Test results from patent US20260092073A1, “NOVEL COMPOUNDS” (Hoffmann-La Roche Inc., priority 2023, published 2026).

Key:
NLRP3 [1] = target: T1, NLRP3 (Homo sapiens, UniProt Q96P20); assay: THP-1 cells pyroptosis assay; format: cell-based; design: Seed THP-1 cells (25,000 cells/well) containing 1.0 μg/ml LPS; host or cells: THP-1 cells, LPS-primed, nigericin-stimulated; settings: LPS 1.0 μg/ml, nigericin 5 μM, resazurin readout
Text: It is well established that the activation of NLRP3 leads to cell pyroptosis and this feature plays an important part in the manifestation of clinical disease (Yan-gang Liu et al., Cell Death & Disease, 2017, 8(2), e2579; Alexander Wree et al., Hepatology, 2014, 59(3), 898-910; Alex Baldwin et al., Journal of Medicinal Chemistry, 2016, 59(5), 1691-1710; Ema Ozaki et al., Journal of Inflammation Research, 2015, 8, 15-27; Zhen Xie & Gang Zhao, Neuroimmunology Neuroinflammation, 2014, 1(2), 60-65; Mattia Cocco et al., Journal of Medicinal Chemistry, 2014, 57(24), 10366-10382; T. Satoh et al., Cell Death & Disease, 2013, 4, e644). Therefore, it is anticipated that inhibitors of NLRP3 will block pyroptosis, as well as the release of pro-inflammatory cytokines (e.g. […]) from the cell.
THP-1 cells (ATCC #TIB-202) were grown in RPMI containing L-glutamine (Gibco #11835) supplemented with 1 mM sodium pyruvate (Sigma #S8636) and penicillin (100 units/ml)/streptomycin (0.1 mg/ml) (Sigma #P4333) in 10% Fetal Bovine Serum (FBS) (Sigma #F0804). The cells were routinely passaged and grown to confluency (˜10^6 cells/ml). On the day of the experiment, THP-1 cells were harvested and resuspended into RPMI medium (without FBS). The cells were then counted and viability (>90%) checked by Trypan blue (Sigma #T8154). Appropriate dilutions were made to give a concentration of 625,000 cells/ml. To this diluted cell solution was added LPS (Sigma #L4524) to give a […] Final Assay Concentration (FAC). 40 μl of the final preparation was aliquoted into each well of a 96-well plate. The plate thus prepared was used for compound screening.
The following method step-by-step assay was followed for compound screening.
Seed THP-1 cells (25,000 cells/well) containing 1.0 μg/ml LPS in 40 μl of RPMI medium (without FBS) in 96-well, black walled, clear bottom cell culture plates coated with poly-D-lysine (VWR #734-0317)
Add 5 μl compound (8 points half-log dilution, with 10 μM top dose) or vehicle (DMSO 0.1% FAC) to the appropriate wells
(§1) Incubate for 3 hours at 37° C., 5% CO2
Add 5 μl nigericin (Sigma #N7143) (FAC 5 μM) to all wells
(§2) Incubate for 1 hr at 37° C., 5% CO2
At the end of the incubation period, spin plates at 300 xg for 3 mins and remove supernatant
Then add 50 μl of resazurin (Sigma #R7017) (FAC 100 μM resazurin in RPMI medium without FBS) and incubate plates for a further 1-2 hours at 37° C. and 5% CO2
Plates were read in an Envision reader at Ex 560 nm and Em 590 nm
(§3) IC50 data is fitted to a non-linear regression equation (log inhibitor vs response-variable slope 4-parameters)

[2] = target: T2, hERG cardiac potassium channel (Homo sapiens, UniProt Q12809); assay: hERG screening assay (automated patch clamp, CHO-hERG cells); format: cell-based; settings: CHO crelox hERG cells (CHO cells that express hERG), whole-cell patch clamp, 35-37° C.
T2 construct: Evotec (cryopreserved) ATCC PTA-6812; host or cells: CHO crelox hERG cell line (Chinese hamster)
T2 sequence (Q12809 whole entry): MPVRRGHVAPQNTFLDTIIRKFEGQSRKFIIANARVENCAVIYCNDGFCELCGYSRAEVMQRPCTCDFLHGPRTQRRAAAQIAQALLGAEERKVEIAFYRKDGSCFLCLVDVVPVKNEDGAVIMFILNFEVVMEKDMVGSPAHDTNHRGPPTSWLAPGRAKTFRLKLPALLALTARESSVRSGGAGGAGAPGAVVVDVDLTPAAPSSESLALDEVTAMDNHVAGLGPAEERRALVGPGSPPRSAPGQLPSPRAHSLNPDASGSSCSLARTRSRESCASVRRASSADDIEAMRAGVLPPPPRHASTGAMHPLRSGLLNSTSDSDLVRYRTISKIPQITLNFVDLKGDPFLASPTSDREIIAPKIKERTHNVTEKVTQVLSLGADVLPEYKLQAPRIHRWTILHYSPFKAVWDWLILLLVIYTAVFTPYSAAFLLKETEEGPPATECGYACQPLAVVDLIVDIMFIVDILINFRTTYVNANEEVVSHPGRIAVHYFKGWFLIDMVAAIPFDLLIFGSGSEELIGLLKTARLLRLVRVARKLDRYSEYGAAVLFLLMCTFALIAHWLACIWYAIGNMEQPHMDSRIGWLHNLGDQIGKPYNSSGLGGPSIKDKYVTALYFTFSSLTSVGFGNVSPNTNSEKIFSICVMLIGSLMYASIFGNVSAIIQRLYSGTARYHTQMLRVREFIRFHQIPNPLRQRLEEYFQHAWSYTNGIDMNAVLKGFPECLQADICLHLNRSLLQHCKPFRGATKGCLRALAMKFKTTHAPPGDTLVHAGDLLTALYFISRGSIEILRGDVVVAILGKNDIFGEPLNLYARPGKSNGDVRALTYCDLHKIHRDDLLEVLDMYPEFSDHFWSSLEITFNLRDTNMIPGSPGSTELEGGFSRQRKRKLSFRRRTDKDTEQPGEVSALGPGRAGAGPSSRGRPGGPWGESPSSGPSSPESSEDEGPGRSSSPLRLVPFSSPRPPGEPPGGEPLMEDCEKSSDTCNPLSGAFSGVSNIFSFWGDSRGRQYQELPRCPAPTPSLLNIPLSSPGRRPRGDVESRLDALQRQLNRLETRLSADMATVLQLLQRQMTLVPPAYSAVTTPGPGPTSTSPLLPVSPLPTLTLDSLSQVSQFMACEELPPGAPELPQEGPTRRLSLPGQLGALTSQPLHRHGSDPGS
Text: In the drug development process of small molecules, one of the most frequent adverse side effects, leading to the failure of drugs, is the cardiac arrhythmias. Such failure is often related to the capacity of the drug to inhibit the human ether-à-go-go-related gene (hERG) cardiac potassium channel. Having no or low inhibition of the hERG cardiac potassium channel is therefore considered as beneficial.
The CHO crelox hERG cell line (ATCC reference Nr. PTA-6812, female Chinese hamster cells) was generated and validated at Roche. Ready-to-use frozen instant CHO-hERG cells were cryopreserved at Evotec (Germany) and used directly in the experiments.
The extracellular solution contains (in mM): NaCl 150; KCl 4; CaCl2 1; MgCl2 1; HEPES 10; pH 7.2-7.4 with NaOH, osmolarity 290-330 mOsm. The internal solution contains (in mM): KCl, 10; KF, 100; NaCl, 10; HEPES, 10; EGTA, 20; pH=7.0-7.4 with KOH, osmolarity 260-300 mOsm.
The effects of a compound on hERG K+-currents parameters will be evaluated at 2 concentrations in at least 4 cells.
The hERG test is performed using automated patch clamp system SynchroPatch® 384 (Nanion Technologies GmbH, Germany). K+ currents are measured with the patch-voltage-clamp technique in the whole-cell configuration at 35-37° C.
The amplitudes of IKhERG were recorded in each concentration of drug and they were compared to the vehicle control values (taken as 100%) to define fractional blocks. The concentration-response data were fitted with the following relationship:
Concentration-response curves were fitted by non-linear regression analysis using EworkBook suite (ID Business Solutions Ltd, UK). Data fit was done with the 4 Parameter Logistic Model (fit=(A+(B/(1+((x/C)^D)))), where A=0 and B=100).

NLRP3 [3] = target: T1, NLRP3; assay: Human whole blood IL-1β release assay; format: cell-based; design: Human whole blood in Li-heparin tubes was obtained from healthy donors; from tissue; host or cells: human whole blood from healthy donors; settings: LPS, nigericin 10 μM, IL-1β by AlphaLisa
Description: For systemic delivery, the ability to inhibit NLRP3 when the compounds are present within the bloodstream is of great importance. For this reason, the NLRP3 inhibitory activity of a number of compounds in human whole blood was investigated in accordance with the following protocol.
Human whole blood in Li-heparin tubes was obtained from healthy donors from a volunteer donor panel.
Plate out 80 μl of whole blood containing […] of LPS in 96-well, clear bottom cell culture plate (Corning #3585)
Add 10 μl compound (8 points half-log dilution with 10 μM top dose) or vehicle (DMSO 0.1% FAC) to the appropriate wells
as §1
Add 10 μl nigericin (Sigma #N7143) (10 μM FAC) to all wells
as §2
At the end of the incubation period, spin plates at 300 xg for 5 mins to pellet cells and remove 20 μl of supernatant and add to 96-well v-bottom plates for IL-1β analysis (note: these plates containing the supernatants can be stored at −80° C. to be analysed at a later date)
IL-1β was measured according to the manufacturer protocol (Perkin Elmer-AlphaLisa IL-1 Kit AL220F-5000)
as §3

human P-gp = target: T3, human P-gp (Homo sapiens, UniProt P08183); assay: Transcellular human P-gp assay (transfected LLC-PK1 cells); format: in vitro ADME; settings: LLC-PK1 cells over-expressing human P-gp
T3 construct: expressed in transfected cells; host or cells: LLC-PK1 (porcine kidney epithelial cells)
T3 sequence (P08183 whole entry): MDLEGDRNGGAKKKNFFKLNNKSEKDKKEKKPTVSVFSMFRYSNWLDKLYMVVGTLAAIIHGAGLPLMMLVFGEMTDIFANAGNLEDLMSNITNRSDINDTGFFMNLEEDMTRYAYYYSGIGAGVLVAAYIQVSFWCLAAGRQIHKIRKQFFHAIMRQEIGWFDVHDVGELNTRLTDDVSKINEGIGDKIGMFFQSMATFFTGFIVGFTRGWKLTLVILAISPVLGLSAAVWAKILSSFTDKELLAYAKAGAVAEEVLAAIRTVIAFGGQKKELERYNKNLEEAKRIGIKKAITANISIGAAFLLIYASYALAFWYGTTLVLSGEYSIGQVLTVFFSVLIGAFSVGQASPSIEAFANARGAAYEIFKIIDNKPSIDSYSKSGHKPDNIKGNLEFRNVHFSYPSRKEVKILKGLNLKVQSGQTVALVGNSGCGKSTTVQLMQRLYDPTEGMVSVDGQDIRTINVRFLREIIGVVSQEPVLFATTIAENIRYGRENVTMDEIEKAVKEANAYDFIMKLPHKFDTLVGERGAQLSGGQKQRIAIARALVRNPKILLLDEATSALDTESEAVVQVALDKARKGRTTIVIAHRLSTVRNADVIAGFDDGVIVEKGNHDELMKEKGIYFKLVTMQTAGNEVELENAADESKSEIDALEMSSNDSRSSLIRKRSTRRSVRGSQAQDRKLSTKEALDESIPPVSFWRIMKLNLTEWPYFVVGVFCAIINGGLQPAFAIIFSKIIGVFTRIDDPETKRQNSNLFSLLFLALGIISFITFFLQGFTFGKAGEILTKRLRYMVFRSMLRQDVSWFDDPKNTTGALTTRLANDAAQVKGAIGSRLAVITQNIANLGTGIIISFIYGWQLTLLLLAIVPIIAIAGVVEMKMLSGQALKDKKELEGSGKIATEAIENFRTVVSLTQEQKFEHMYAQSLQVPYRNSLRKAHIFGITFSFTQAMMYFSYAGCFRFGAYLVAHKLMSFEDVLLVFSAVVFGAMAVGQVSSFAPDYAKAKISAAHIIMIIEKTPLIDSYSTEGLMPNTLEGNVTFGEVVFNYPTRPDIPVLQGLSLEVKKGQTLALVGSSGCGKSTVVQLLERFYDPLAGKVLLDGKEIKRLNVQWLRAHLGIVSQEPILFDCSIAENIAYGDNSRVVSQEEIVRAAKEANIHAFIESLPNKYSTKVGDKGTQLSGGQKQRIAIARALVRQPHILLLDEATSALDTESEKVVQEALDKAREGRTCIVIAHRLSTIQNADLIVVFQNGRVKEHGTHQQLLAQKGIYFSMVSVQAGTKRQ
Text: The general assay uses transfected LLC-PK1 cells (porcine kidney epithelial cells) over-expressing human or mouse P-gp, cultured on 96 well semi-permeable filter membrane plates, where they form a polarized monolayer with tight junctions, and act as a barrier between the apical and basolateral compartment.
P-gp is expressed in the apical-facing membrane of the monolayer. […] J. Pharmacol. Exp Ther., 2021, 376, 322-329.

T1 sequence (Q96P20 whole entry): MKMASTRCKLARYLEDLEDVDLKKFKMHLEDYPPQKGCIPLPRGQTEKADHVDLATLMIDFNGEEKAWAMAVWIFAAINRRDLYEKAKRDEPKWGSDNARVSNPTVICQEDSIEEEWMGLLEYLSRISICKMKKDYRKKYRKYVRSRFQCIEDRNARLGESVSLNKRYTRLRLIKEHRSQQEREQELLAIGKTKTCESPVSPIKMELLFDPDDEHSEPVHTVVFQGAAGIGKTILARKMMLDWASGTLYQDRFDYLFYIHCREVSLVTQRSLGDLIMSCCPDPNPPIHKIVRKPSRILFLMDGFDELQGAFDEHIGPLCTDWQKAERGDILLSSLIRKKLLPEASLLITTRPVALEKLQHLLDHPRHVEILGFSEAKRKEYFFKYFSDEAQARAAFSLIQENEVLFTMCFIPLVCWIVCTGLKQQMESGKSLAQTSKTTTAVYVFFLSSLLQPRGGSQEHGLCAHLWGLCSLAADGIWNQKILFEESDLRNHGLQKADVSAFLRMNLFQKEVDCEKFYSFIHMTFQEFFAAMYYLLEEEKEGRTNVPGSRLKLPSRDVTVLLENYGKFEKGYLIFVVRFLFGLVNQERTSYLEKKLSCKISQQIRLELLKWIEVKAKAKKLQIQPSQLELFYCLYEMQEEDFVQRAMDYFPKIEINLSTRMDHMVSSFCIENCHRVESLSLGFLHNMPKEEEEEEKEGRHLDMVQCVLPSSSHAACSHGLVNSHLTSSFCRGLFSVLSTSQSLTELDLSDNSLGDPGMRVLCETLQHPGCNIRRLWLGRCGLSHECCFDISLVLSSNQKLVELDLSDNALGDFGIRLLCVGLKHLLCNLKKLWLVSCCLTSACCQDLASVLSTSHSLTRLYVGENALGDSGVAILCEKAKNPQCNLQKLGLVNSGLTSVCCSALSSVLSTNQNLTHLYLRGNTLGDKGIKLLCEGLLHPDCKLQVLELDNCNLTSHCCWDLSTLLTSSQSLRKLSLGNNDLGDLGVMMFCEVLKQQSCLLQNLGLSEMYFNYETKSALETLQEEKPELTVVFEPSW

Row | IC50 (NLRP3 [1]) | IC50 (NLRP3 [3]) | efflux ratio (human P-gp; read-out: ER (efflux ratio)) | Papp (human P-gp; read-out: Permeability) | SMILES | IC20 [2]
1 | 8 nM | 15 nM |  |  | COCc1cc2c(c(O)c1-c1ccc3oc(N[C@@H]4CCCN(CCO)C4)nc3n1)CCO2 [Example 12, 5-[2-[[(3R)-1-(2-Hydroxyethyl)-3-piperidyl]amino]oxazolo[4,5-b]pyridin-5-yl]-6-(methoxymethyl)-2,3-dihydrobenzofuran-4-ol] | > 10000 nM
2 | 0.6 nM | 22 nM | 4 | 13.5 ×10⁻⁶ cm/s | Cc1cc2c(c(O)c1-c1ccc3oc(N[C@@H]4CCCN(CCO)C4)nc3n1)CCO2 [Example 14, 5-[2-[[(3R)-1-(2-Hydroxyethyl)-3-piperidyl]amino]oxazolo[4,5-b]pyridin-5-yl]-6-methyl-2,3-dihydrobenzofuran-4-ol] | 
3 | 34 nM | 33 nM |  |  | COCc1cc(C#N)cc(O)c1-c1cnc2oc(N[C@@H]3CCCN(CCO)C3)nc2n1 [Example 15, 3-Hydroxy-4-[2-[[(3R)-1-(2-hydroxyethyl)-3-piperidyl]amino]oxazolo[4,5-b]pyrazin-5-yl]-5-(methoxymethyl)benzonitrile;2,2,2-trifluoroacetic Acid] | > 10000 nM
4 | 2 nM |  |  |  | Cc1cc2c(c(O)c1-c1cnc3oc(N[C@@H]4CCCN(CCO)C4)nc3n1)CCC2 [Example 18, 5-[2-[[(3R)-1-(2-Hydroxyethyl)-3-piperidyl]amino]oxazolo[4,5-b]pyrazin-5-yl]-6-methyl-indan-4-ol] | 6300 nM
5 | 2 nM | 16 nM |  |  | CCN1C[C@@H](O)C[C@@H](Nc2nc3nc(-c4c(C)cc5c(c4O)CCO5)cnc3o2)C1 [Example 25, (3S,5R)-1-Ethyl-5-[[5-(4-hydroxy-6-methyl-2,3-dihydrobenzofuran-5-yl)oxazolo[4,5-b]pyrazin-2-yl]amino]piperidin-3-ol] | 
6 | 6 nM | 95 nM |  |  | CCN1C[C@@H](O)C[C@@H](Nc2nc3nc(-c4c(C)cc(C#N)cc4O)cc(F)c3o2)C1 [Example 27, 4-[2-[[(3R,5S)-1-Ethyl-5-hydroxy-3-piperidyl]amino]-7-fluoro-oxazolo[4,5-b]pyridin-5-yl]-3-hydroxy-5-methyl-benzonitrile] | 
7 | 23 nM | 86 nM |  |  | Cc1cc(C#N)cc(O)c1-c1ccc2oc(N[C@@H]3CCCN(CCCc4ncco4)C3)nc2n1 [Example 28, 3-Hydroxy-5-methyl-4-[2-[[(3R)-1-(3-oxazol-2-ylpropyl)-3-piperidyl]amino]oxazolo[4,5-b]pyridin-5-yl]benzonitrile] | 
8 | 7 nM | 124 nM |  |  | Cc1cc(C#N)cc(O)c1-c1cc(F)c2oc(N[C@@H]3CCCN(CCO)C3)nc2n1 [Example 29, 4-[7-Fluoro-2-[[(3R)-1-(2-hydroxyethyl)-3-piperidyl]amino]oxazolo[4,5-b]pyridin-5-yl]-3-hydroxy-5-methyl-benzonitrile] | 
9 | 13 nM | 48 nM |  |  | CCN1C[C@@H](O)C[C@@H](Nc2nc3nc(-c4c(C)cc(C#N)cc4O)cc(OC)c3o2)C1 [Example 30, 4-[2-[[(3R,5S)-1-Ethyl-5-hydroxy-3-piperidyl]amino]-7-methoxy-oxazolo[4,5-b]pyridin-5-yl]-3-hydroxy-5-methyl-benzonitrile] | 
